The test system of data set [1] is monocyte-derived dendritic cells. Description: Cell viability / cytotoxicity in monocyte-derived dendritic cells (ATP, CellTiter Glo). The data set is classed as cell-based, human. To be noted: 24 h, unit assumed. The procedure:
(§1) Peripheral blood mononuclear cells are isolated from buffy coats from healthy volunteers by Lymphoprep density gradient centrifugation, followed by lysis of residual erythrocytes with isotonic buffer solution of ammonium chloride. CD14+ cells are isolated by positive selection using MACS® technology and CD14 MicroBeads (Miltenyi Biotec) according to manufacturer's instructions. The isolated monocytes are differentiated into dendritic cells by incubation for 5 days in RPMI-1640 medium supplemented with 10% fetal bovine serum (FBS), 50 ng/mL GM-CSF and 35 ng/mL IL-4. After 5 days the DCs are seeded in 96-well plates in DMEM supplemented with 10% charcoal stripped FBS, GM-CSF and IL-4. The following day cells are triggered with LPS and IFNγ. After 24 h of incubation medium is replaced with DMEM F-12 medium supplemented with 6 mg/mL L-tryptophan and 10% charcoal stripped FBS. Compounds are added to the cells and incubated for 24 h at 37° C., 5% CO2, 95% humidity. Compounds are tested at 7 consecutive 4-fold dilutions starting from 30 μM in duplicate.
(§2) At the end of incubation concentration of kynurenine in cell supernatants is determined by LC-MS/MS. In parallel, cell viability is assessed by measurement of ATP by use of CellTiter Glo assay (Promega) according to manufacturer's protocol.
Cell viability results are analysed in Microsoft Excel and expressed as fold change over untreated control.

The next data set deals with T1, TDO2 enzyme (Homo sapiens, UniProt P48775).
T1 construct: purchased Netherlands Translational Research Center B.V. NTRC-hTDO-1K
T1 sequence (P48775 whole entry): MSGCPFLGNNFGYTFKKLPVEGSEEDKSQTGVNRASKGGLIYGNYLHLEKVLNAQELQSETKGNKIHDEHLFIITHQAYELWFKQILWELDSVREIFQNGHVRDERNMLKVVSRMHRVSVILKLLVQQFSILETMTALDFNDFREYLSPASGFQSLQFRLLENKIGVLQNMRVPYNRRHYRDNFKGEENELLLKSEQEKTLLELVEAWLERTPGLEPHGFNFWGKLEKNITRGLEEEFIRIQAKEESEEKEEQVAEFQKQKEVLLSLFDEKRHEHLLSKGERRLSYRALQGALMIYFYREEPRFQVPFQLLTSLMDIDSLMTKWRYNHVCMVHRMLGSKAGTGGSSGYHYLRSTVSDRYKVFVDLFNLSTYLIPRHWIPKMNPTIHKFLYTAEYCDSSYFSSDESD
Description: TDO2 enzyme inhibition assay (hTDO2 assay kit, NFK-green). To be noted: TDO2 enzyme 50 nM, tryptophan 200 μM, top concentration 30 μM; read-out: TDO2 Biochemical assay IC50. The procedure:
The effect of compounds on TDO2 enzymatic activity was assess by use of an hTDO2 assay kit (Netherlands Translational Research Center B.V., Cat #NTRC-hTDO-1K). TDO2 enzyme and tryptophan substrate are diluted in assay buffer. Compounds are tested at 8 consecutive 3-fold dilutions starting from 30 μM. 267 nL of compound is added per well of a 384-well plate followed by addition of 10 μL of assay buffer. TDO2 enzyme is added at a final concentration of 50 nM and pre-incubated for 60 min at room temperature in the dark. Tryptophan substrate solution is then added at final concentration of 200 μM to all wells and the plate incubated for 15 min at RT in the dark. Finally NFK-green reagent is added at ⅕ of total reaction volume and incubated for 4 h at RT in the dark. After incubation fluorescence is measured at Ex405 nm-Em535 nm using EnVision plate reader.
(§3) IC50 values are determined using GraphPad Prism software 5.04 for Windows by plotting percent of inhibition against log 10 concentrations of compounds using a four-parametric sigmoidal curve with a variable slope.

In the next data set the test system is SK-OV-3 cells. Description: Effect of compounds on tryptophan catabolism in SK-OV-3 cell line (inhibition of kynurenine production, LC-MS/MS). It counts as cell-based. To be noted: for IC50: Homo sapiens, SK-OV-3, 24 h, SK-OV-3 cell line, 24 h incubation, kynurenine in supernatant by LC-MS/MS, read-out: IC50 Ranges (ic50 values for inhibition of Kynurenine production). Summed up: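 Cells seeded overnight in McCoy's 5A/10% FBS, then switched to DMEM F-12 with 6 mg/mL L-tryptophan; compounds added at 8 3-fold dilutions from 30 μM, in duplicate, 24 h at 37 °C. Supernatant kynurenine measured by LC-MS/MS; ATP-based viability run in parallel; IC50 from % inhibition of Kyn production.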

In data set [2] the test system is monocyte-derived dendritic cells. The data set can be described thus: Effect of compounds on tryptophan catabolism in monocyte-derived dendritic cells (kynurenine production). The data set is classed as cell-based. The settings on record: Homo sapiens, Dendritic cell; dendritic cells triggered with LPS and IFNγ, 24 h with compound. The procedure:
as §1, §2
Inhibition of Kyn production is calculated using the following formula:
(1−(Kyn conc. cmpd.−Kyn conc. medium)/(Kyn conc. medium with cells−Kyn conc. medium))·100
IC50 values are determined using GraphPad Prism software 5.04 for Windows, by plotting percent of inhibition against log 10 concentrations of compounds using a four-parametric sigmoidal curve with a variable slope.

Data set [3] has as its system IDO1 protein in SK-OV-3 cells. Description: Effect of compounds on IDO1 expression in SK-OV-3 cell line (Western analysis, normalised to GAPDH). To be noted: 24 hours exposure. The data set is classed as cell-based. The procedure: SK-OV-3 cells are seeded in 24-well plates in McCoy's 5A medium supplemented with 10% FBS at density of 250000 cells per well and incubated overnight at 37° C., 5% CO2, 95% humidity. The following day growth medium is replaced with DMEM F-12 medium containing 6 mg/mL L-tryptophan. Compounds are added to the wells and the plate is incubated for 24 h at 37° C., 5% CO2, 95% humidity. At the end of incubation medium is removed, cells are washed and then lysed in RIPA buffer. Protein concentrations in the samples are determined using BCA method (Thermo Scientific) and adjusted to 0.5 mg/mL. Western analysis is performed on the Wes system (Protein Simple) using IDO1 (Cell Signalling; Cat #12006S) and GAPDH (Abcam, Cat #ab9485) antibodies. Expression of IDO1 is normalised to GAPDH.

The target in another data set is T2, IDO1 enzyme (Homo sapiens, UniProt P14902).
T2 construct: purchased Netherlands Translational Research Center B.V. NTRC-hIDO-1K
T2 sequence (P14902 whole entry): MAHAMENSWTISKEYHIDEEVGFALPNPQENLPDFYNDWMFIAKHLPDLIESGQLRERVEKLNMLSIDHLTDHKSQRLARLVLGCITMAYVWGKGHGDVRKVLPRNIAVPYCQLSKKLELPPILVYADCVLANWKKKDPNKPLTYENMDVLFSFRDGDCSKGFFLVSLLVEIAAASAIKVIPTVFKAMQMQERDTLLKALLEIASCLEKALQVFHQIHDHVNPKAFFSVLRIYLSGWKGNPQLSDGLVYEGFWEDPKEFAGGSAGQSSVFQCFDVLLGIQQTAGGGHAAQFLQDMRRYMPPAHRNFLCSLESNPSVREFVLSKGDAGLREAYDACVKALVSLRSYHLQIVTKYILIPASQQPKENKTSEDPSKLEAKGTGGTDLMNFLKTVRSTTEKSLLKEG
Description: IDO1 enzyme inhibition assay (hIDO assay kit, NFK-green). The settings on record: IDO1 enzyme 25 nM, tryptophan 100 μM, top concentration 30 μM; read-out: IDO1 Biochemical assay IC50. The procedure:
The effect of compounds on IDO1 enzymatic activity was assessed by use of a hIDO assay kit (Netherlands Translational Research Center B.V., Cat #NTRC-hIDO-1K). IDO1 enzyme and tryptophan substrate are diluted in assay buffer. Compounds are tested at 8 consecutive 3-fold dilutions starting from 30 μM. 267 nL of compound is added per well of a 384-well plate followed by addition of 10 μL of assay buffer. IDO1 enzyme is added at a final concentration of 25 nM and pre-incubated for 30 min at room temperature in the dark. Tryptophan substrate solution is then added at final concentration of 100 μM to all wells and the plate incubated for 60 min at RT in the dark. Finally NFK-green reagent is added at ⅕ of total reaction volume and incubated for 4 h at RT in the dark. After incubation fluorescence is measured at Ex405 nm-Em535 nm using EnVision plate reader.
as §3

Where only a bound is given, the exact number is not on record here.

This note sets out measurements from patent publication US20210238139A1, “MODULATORS OF TRYPTOPHAN CATABOLISM” (E-Therapeutics PLC, priority 2018, published 2021).

Turning to `O=C(Nc1ccc(Cl)cc1)N(Cc1cccc(C(F)(F)F)c1)C1CCC1` [Compound 90, 3-(4-chlorophenyl)-1-cyclobutyl-1-[[3-(trifluoromethyl)-phenyl]methyl]urea], the Cell viability at 30 uM (% of untreated control) in data set [1] was 67%. Also, the IC50 on TDO2 enzyme is more than 30000 nM; with SK-OV-3 cells, less than 100 nM; in data set [2], 66 nM.
As to `N#Cc1cccc(CN(C(=O)Nc2ccc(Cl)cc2)C2CCCC2)c1` [Compound 147, 3-(4-chlorophenyl)-1-[(3-cyanophenyl)methyl]-1-cyclopentyl-urea], in data set [1], the Cell viability at 30 uM (% of untreated control) amounted to 122%. The IC50 is more than 30000 nM at TDO2 enzyme, less than 100 nM in the data set on SK-OV-3 cells and 70 nM in data set [2].
On to `C#Cc1ccc(NC(=O)N(Cc2ccc(C)o2)C2CCCC2)cc1` [Compound 102, 1-cyclopentyl-3-(4-ethynylphenyl)-1-[(5-methyl-2-furyl)methyl]urea], for which, in data set [3], the “reduction in IDO1 protein in SKOV-3 cells (FIG. 1a)” value is “dose-dependent reduction in IDO1 protein”. The results for the IC50 at TDO2 enzyme and with SK-OV-3 cells were more than 30000 nM and less than 100 nM, respectively. Also, in the data set on SK-OV-3 cells (SKOV-3 cells, 24 hours exposure), the “inhibition of kynurenine production by SKOV-3 (FIG. 1b)” value is listed as “dose-dependent inhibition of kynurenine production”.
For `Cc1ccc(CN(C(=O)Nc2ccc(C#N)cc2)C2CCCC2)o1` [Compound 80, 3-(4-cyanophenyl)-1-cyclopentyl-1-[(5-methyl-2-furyl)methyl]urea], the IC50 on IDO1 enzyme is more than 30000 nM; at TDO2 enzyme it was more than 30000 nM; in the data set on SK-OV-3 cells, less than 100 nM; in data set [2], 26 nM. Besides, the Cell viability at 30 uM (% of untreated control) in data set [1] worked out at 112%.
For `Cc1ccc(CN(C(=O)Nc2ccc(Cl)cc2)C2CCCC2)o1` [Compound 137, 3-(4-chlorophenyl)-1-cyclopentyl-1-[(5-methyl-2-furyl)methyl]urea], the 50% inhibitory concentration (IC50) was more than 30000 nM on IDO1 enzyme, more than 30000 nM at TDO2 enzyme, less than 100 nM in the data set on SK-OV-3 cells and 40 nM in data set [2]. In addition, the Cell viability at 30 uM (% of untreated control) in data set [1] stood at 88%.
With `Cc1ncc(CN(C(=O)Nc2ccc(Cl)cc2)C2CCCC2)o1` [Compound 144, 3-(4-chlorophenyl)-1-cyclopentyl-1-[(2-methyloxazol-5-yl)methyl]urea], the IC50 at IDO1 enzyme was more than 30000 nM; at TDO2 enzyme, more than 30000 nM; in the data set with SK-OV-3 cells it was 100 to 500 nM; in data set [2] it was 380 nM. Also, the Cell viability at 30 uM (% of untreated control) in data set [1] was 109%.
In the case of `Cc1ccc(CN(C(=O)Nc2ccc(Cl)cc2)C2CCC2)o1` [Compound 83, 3-(4-chlorophenyl)-1-cyclobutyl-1-[(5-methyl-2-furyl)methyl]urea], the IC50 on IDO1 enzyme is more than 30000 nM; on TDO2 enzyme, more than 30000 nM; in the data set on SK-OV-3 cells it was less than 100 nM; in data set [2], 130 nM. Besides, in data set [1], the Cell viability at 30 uM (% of untreated control) is 89%.
For `Cc1ccc(CN(C(=O)NCCc2ccccc2)C2CCCC2)s1` [Compound 26, 1-cyclopentyl-1-[(5-methyl-2-thienyl)methyl]-3-(2-phenylethyl)urea], the Cell viability at 30 uM (% of untreated control) in data set [1] came to 19%. Besides, the IC50 is less than 100 nM in the data set with SK-OV-3 cells and 100 nM in data set [2].
The corresponding values for `O=C(Nc1ccc(F)c(F)c1)N(Cc1ccc(F)c(OC(F)(F)F)c1)C1CCCC1` [Compound 141, 1-cyclopentyl-3-(3,4-difluorophenyl)-1-[[4-fluoro-3 (trifluoromethoxy)phenyl]methyl]urea] are 90%, less than 100 nM and 470 nM.
